From patent US11925629B2, “Heterocyclic inhibitors of ERK1 and ERK2 and their use in the treatment of cancer” (Asana Biosciences, LLC, priority 2015, dated 2024)
Where a name gives a salt, the structure may show the parent alone.

What was measured:
[1] = test system: HT-29 (colorectal carcinoma, B-RafV600E) cells; assay: Cell proliferation (Alamar Blue) assay, HT-29; type: cell-based, human
Procedure: (§1) Cell Proliferation (Alamar Blue) Assay
(§2) HT-29 (colorectal carcinoma, B-RafV600E), HCT116 (colorectal carcinoma, K Ras G13D), A375 (melanoma, B-RafV600E) and SK-Mel2 (melanoma, NRAS Q61R) cells (obtained from ATCC, USA) were seeded (5000 cells/well) in 96-well tissue culture plate and incubated at 37° C./5% CO2 for 16-24 hours. The cells were then treated with compounds, at concentrations typically from 0.0005 to 10 uM prepared in 3-fold serial dilutions. The plates were then incubated for 72 h at 37° C./5% CO2 in a moist environment. Then Alamar Blue™ reagent (final concentration 1×) was added to each well and incubated for 1-3 h at 37° C./5% CO2. The plates were read on fluorescence reader at 540 nm excitation and 590 nm emission wavelengths. The IC50 values were subsequently determined using a sigmoidal dose-response curve (variable slope) using GraphPad Prism® 5 software.

[2] = test system: HCT116 (colorectal carcinoma, K Ras G13D) cells; assay: Cell proliferation (Alamar Blue) assay, HCT116; type: cell-based, human
Procedure: as §1, §2

[3] = Homo sapiens, HT-29, HT29 cells
[4] = Homo sapiens, HCT-116, HCT116 cells

| SMILES | IC50 [1, 3] | IC50 [2, 4] | IC50 ([2]; HCT116 cells) | IC50 ([1]; HT29 cells) |
| --- | --- | --- | --- | --- |
| O=C(Nc1cnn(-c2nc(NC3CC3)ncc2F)c1)N[C@H](CO)c1cccc(Cl)c1 [Example 30, (S)-1-(1-(3-chlorophenyl)-2-hydroxy-ethyl)-3-(1-(2-(cyclo-propyl-amino)-5-fluoro-pyrimidin-4-yl)-1H-pyrazol-4-yl)urea] | > 2.5 µM | > 2.5 µM |  |  |
| O=C(NC(CO)c1ccccc1)c1ccn(-c2ccnc(Nc3ccc(F)cc3Cl)c2)c1 (centres unmarked) [Example 82, 1-(2-((2-chloro-4-fluorophenyl)amino)pyridin-4-yl)-N-(2-hydroxy-1-phenylethyl)-1H-pyrrole-3-carboxamide] | > 2.5 µM | > 2.5 µM |  |  |
| O=C(Nc1cnn(-c2ccnc(Nc3cccnc3)n2)c1)N[C@H](CO)c1cccc(Cl)c1 [Example 24, (S)-1-(1-(3-chlorophenyl)-2-hydroxy-ethyl)-3-(1-(2-(pyridin-3-yl-amino)pyrimidin-4-yl)-1H-pyrazol-4-yl)urea] | > 2.5 µM | > 2.5 µM |  |  |
| O=C(Nc1cnn(-c2ccnc(Nc3ccccc3)c2)c1)N[C@@H](CO)c1cccc(Cl)c1 [Example 49, (R)-1-(1-(3-chloro-phenyl)-2-hydroxy-ethyl)-3-(1-(2-(phenylamino)pyridin-4-yl)-1H-pyrazol-4-yl)urea] | > 2.5 µM | > 2.5 µM |  |  |
| O=C(Nc1cnn(-c2ccnc(Nc3ccc(F)cc3Cl)n2)c1)N[C@H](CO)c1cccc(Cl)c1 [Cmpd 20, (S)-1-(1-(2-((2-chloro-4-fluoro-phenyl)amino)pyrimidin-4-yl)-1H-pyrazol-4-yl)-3-(1-(3-chloro-phenyl)-2-hydroxyethyl) urea] |  | > 2.5 µM |  |  |
| Cc1cnc(NC2CC2)nc1-n1cc(NC(=O)N[C@H](CO)c2cccc(Cl)c2)cn1 [Example 3, (S)-1-(1-(3-chlorophenyl)-2-hydroxyethyl)-3-(1-(2-(cyclo-propyl-amino)-5-methyl-pyrimidin-4-yl)-1H-pyrazol-4-yl)urea] | > 2.5 µM | > 2.5 µM |  |  |
| Cc1cnc(Nc2ccc3c(c2)OC(F)(F)O3)cc1-n1cnc(C(=O)NC(CN)Cc2ccccc2)c1 (centres unmarked) [Example 99, N-(1-amino-3-phenyl-propan-2-yl)-1-(2-((2,2-difluoro-benzo[d][1,3]dioxol-5-yl)amino)-5-methyl-pyridin-4-yl)-1H-imidazole-4-carboxamide] | > 2.5 µM | > 2.5 µM |  |  |
| O=C(Nc1cnn(-c2ccnc(Nc3ccccc3Cl)n2)c1)N[C@H](CO)c1ccccc1 [Example 7, (S)-1-(1-(2-((2-chlorophenyl)amino)pyrimidin-4-yl)-1H-pyrazol-4-yl)-3-(2-hydroxy-1-phenylethyl) urea] | > 2.5 µM | > 2.5 µM |  |  |
| O=C(Nc1cnn(-c2ccnc(Nc3ccccc3Cl)n2)c1)N[C@H](CO)c1cccc(Cl)c1 [Example 1, (S)-1-(1-(3-chlorophenyl)-2-hydroxyethyl)-3-(1-(2-((2-chloro-phenyl)amino)pyrimidin-4-yl)-1H-pyrazol-4-yl) urea] |  | > 2.5 µM |  |  |
| O=C(Nc1cnn(-c2ccnc(Nc3ccccc3)c2)c1)NC(CO)c1cccc(Cl)c1 (centres unmarked) [Example 33, 1-(1-(3-chlorophenyl)-2-hydroxy-ethyl)-3-(1-(2-(phenyl-amino)-pyridin-4-yl)-1H-pyrazol-4-yl)urea] |  | > 2.5 µM |  |  |
| O=C(Nc1cnn(-c2ccnc(NC3CC3)n2)c1)NC(CO)c1cccc(Cl)c1 (centres unmarked) [Example 16, 1-(1-(3-chlorophenyl)-2-hydroxy-ethyl)-3-(1-(2-(cyclo-propylamino)pyrimidin-4-yl)-1H-pyrazol-4-yl)urea] |  | > 2.5 µM |  |  |
| COc1cc(N2CCN(C(C)=O)CC2)ccc1Nc1nccc(-n2cc(NC(=O)N[C@H](CO)c3cccc(Cl)c3)cn2)n1 [Example 15, (S)-1-(1-(2-((4-(4-acetyl-piperazin-1-yl)-2-methoxy-phenyl)amino)pyrimidin-4-yl)-1H-pyrazol-4-yl)-3-(1-(3-chloro-phenyl)-2-hydroxyethyl) urea] |  | > 2.5 µM |  |  |
| Cc1cnc(Nc2ccc(F)cc2Cl)nc1-n1cc(C(=O)N[C@H](CO)c2cccc(Cl)c2)cn1 [Example 35, (S)-1-(2-((2-chloro-4-fluoro-phenyl)amino)-5-methyl-pyrimidin-4-yl)-N-(1-(3-chloro-phenyl)-2-hydroxy-ethyl)-1H-pyrazole-4-carboxamide] |  | > 2.5 µM |  |  |
| O=C(Nc1cnn(-c2ccnc(N[C@H]3CC[C@H](O)CC3)n2)c1)N[C@H](CO)c1cccc(Cl)c1 [Example 14, 1-((S)-1-(3-chlorophenyl)-2-hydroxy-ethyl)-3-(1-(2-((trans-4-hydroxycyclo-hexyl)amino)pyrimidin-4-yl)-1H-pyrazol-4-yl)urea] |  | > 2.5 µM |  |  |
| Cc1cnc(Nc2ccc(F)cc2Cl)nc1-n1cc(NC(=O)NC(CO)c2cccc(Cl)c2)cn1 (centres unmarked) [Example 36, 1-(1-(2-((2-chloro-4-fluorophenyl)-amino)-5-methyl-pyrimidin-4-yl)-1H-pyrazol-4-yl)-3-(1-(3-chlorophenyl)-2-hydroxy-ethyl)urea] |  | > 2.5 µM |  |  |

Other lines, results leading:

| IC50 [1, 3] | IC50 [2, 4] | IC50 ([2]; HCT116 cells) | IC50 ([1]; HT29 cells) | SMILES |
| --- | --- | --- | --- | --- |
| 0.5 to 2.5 µM | > 2.5 µM |  |  | Cc1cnc(Nc2cc3c(cc2Cl)OCO3)nc1-n1ccc(C(=O)NC(CO)c2cccc(Cl)c2)c1 (centres unmarked) [Example 101, 1-(2-((6-chloro-benzo[d][1,3]dioxol-5-yl)amino)-5-methyl-pyrimidin-4-yl)-N-(1-(3-chlorophenyl)-2-hydroxy-ethyl)-1H-pyrrole-3-carboxamide] |
| > 2.5 µM | > 2.5 µM |  |  | Cc1cnc(Nc2ccc3[nH]cc(C4=CCNCC4)c3c2)nc1-n1ccc(C(=O)NC(CO)c2cccc(Cl)c2)c1 (centres unmarked) [Example 209, N-(1-(3-chlorophenyl)-2-hydroxyethyl)-1-(5-methyl-2-((3-(1,2,3,6-tetrahydropyridin-4-yl)-1H-indol-5-yl)amino)pyrimidin-4-yl)-1H-pyrrole-3-carboxamide hydrochloride] |
| 0.25 to 0.5 µM | 0.25 to 0.5 µM |  |  | Cc1cnc(Nc2ccc(F)c(N3CCOCC3)c2)nc1-n1cnc(C(=O)NC(CO)c2cccc(Cl)c2)c1 (centres unmarked) [Example 223, N-(1-(3-chlorophenyl)-2-hydroxyethyl)-1-(2-((4-fluoro-3-morpholinophenyl)amino)-5-methylpyrimidin-4-yl)-1H-imidazole-4-carboxamide] |
|  |  | ≤ 0.1 µM |  | Cc1cnc(NC2CCOCC2)nc1-n1cnc(C(=O)NC(CN)c2ccc(Cl)s2)c1 (single isomer, unassigned; enantiomer #1) [Example 290, N-(2-amino-1-(5-chlorothiophen-2-yl)ethyl)-1-(5-methyl-2-((tetrahydro-2H-pyran-4-yl)amino)pyrimidin-4-yl)-1H-imidazole-4-carboxamide (enantiomer #1)] |
|  |  |  | 0.1 to 0.25 µM | Cc1cnc(Nc2ccc(F)cc2)cc1-n1cnc(C(=O)NC(CN)c2ccccc2)c1 (single isomer, unassigned; enantiomer #1) [Example 227, N-(2-amino-1-phenylethyl)-1-(2-((4-fluorophenyl)amino)-5-methylpyridin-4-yl)-1H-imidazole-4-carboxamide, Enantiomer #1] |
|  | > 2.5 µM |  |  | O=C(N[C@H](CO)c1cccc(Cl)c1)c1ccn(-c2ccnc(Nc3ccc(F)cc3Cl)n2)c1 [Example 112, (S)-1-(2-((2-chloro-4-fluorophenyl)-amino)pyrimidin-4-yl)-N-(1-(3-chlorophenyl)-2-hydroxy-ethyl)-1H-pyrrole-3-carboxamide] |
|  |  | ≤ 0.1 µM |  | Cc1cnc(NC2CCOCC2)nc1-n1cnc(C(=O)NC(CN)c2ccc(Cl)s2)c1 (centres unmarked) [Example 274, N-(2-amino-1-(5-chlorothiophen-2-yl)ethyl)-1-(5-methyl-2-((tetrahydro-2H-pyran-4-yl)amino)pyrimidin-4-yl)-1H-imidazole-4-carboxamide] |
